IC50, bioavailability and AUC(0-t) data for eleven molecules are collected here from patent publication US20240124454A1, “TRICYCLIC COMPOUND AND USE THEREOF” (NANJING ZAIMING PHARMACEUTICAL CO., LTD., priority 2020, published 2024).

One data set relates to HCT116 WT cells. The experiment in a line: Cell proliferation inhibition test (Cell-Titer Glo), HCT116 WT. The format is cell-based, human. Conditions: 6 days, read-out: HCT116 WT Antiproliferative activity IC50. In short, it runs like this: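 Cells seeded at 400 per well, overnight, then exposed 6 days at 37 °C to compound from 10 μM top final concentration in 3-fold dilutions. Viability by ATP luminescence (Cell-Titer Glo), normalised to medium-only and DMSO controls, IC50 by curve fitting.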

The nature of data set [1]: Pharmacokinetics in Balb/c Nude mice. The format is in vivo. Particulars: female, mouse, plasma; for bioavailability: Balb/c Nude, vs IV 1 mg/kg; for AUC(0-t): Balb/c Nude mice, read-out: AUC0-24. On the procedure:
Test Example 9. Determination of Pharmacokinetics of Compounds of Present Application
The pharmacokinetics of the compounds of the present application were determined in mice using the following method.
I. Materials: • Balb/c Nude mice, purchased from Beijing Vital River Laboratory Animal Technology Co., Ltd. • NMP (N-methyl-2-pyrrolidone), Solutol® HS 15 (polyoxyethylenated 12-hydroxystearic acid), and Vitamin E TPGS (D-a-tocopherol-polyethylene glycol 1000 succinate), purchased from Sigma. • Acetonitrile, purchased from Merck (USA).
II. Vehicle preparation: • 10% aqueous VE TPGS solution: 1 g of VE TPGS was dissolved in purified water, and the volume was brought to 10 mL. • 5% NMP+10% Solutol® HS 15+85% water: 0.5 mL of NMP was measured using a pipette, 1 g of Solutol® HS 15 was weighed, and the volume was brought to 10 mL with water.
6 female Balb/c Nude mice (20-30 g, 4-6 weeks) were randomized into 2 groups of 3. Group 1 was administered with 1 mpk (1 mg/kg) test compound by injection at the tail vein (IV), and the vehicle was 5% NMP+10% Solutol® HS 15+85% water. Group 2 was administered with 1 or 3 mpk test compound by oral administration (PO) (see the table below for specific doses), and the vehicle was 5% NMP+10% Solutol® HS 15+85% water or 10% Vitamin E TPGS aqueous solution. Before the experiment, all animals were given free access to food and water. Blood samples of the mice in each group were collected intravenously pre-dose and at 0.083 h (only the intravenous injection group), 0.25 h, 0.5 h, 1 h, 2 h, 4 h, 6 h, 8 h, and 24 h post-dose. The whole blood samples were collected in K2EDTA vacutainers, and the plasma samples were prepared by 5 min of centrifugation (4000 rpm, 4° C.).
10 μL of mouse plasma was added to 150 μL acetonitrile solvent (containing an internal standard) to precipitate the protein. The mixture was vortexed for 0.5 min and centrifuged (14000 rpm) for 5 min. The supernatant was diluted 2-fold with water containing 0.1% (v/v) FA and quantitatively detected on an LC-MS/MS system (AB Sciex Triple Quad 6500+). When the concentration of the sample was measured, quality control samples were also analyzed and a Balb/c Nude mouse plasma standard curve was plotted. For 10× diluted samples, 2 μL of the sample was added to 18 μL of blank plasma. The mixture was vortexed for 0.5 min. Then 300 μL of acetonitrile solvent (containing an internal standard) was added to precipitate the protein. The other steps were the same as those in undiluted samples.

[2] abbreviates: PO 1 mg/kg, vehicle 5% NMP + 10% Solutol HS 15 + 85% water.
The mark [3] stands for this setting: PO 3 mg/kg, vehicle 10% VE TPGS aqueous solution.

Each structure is given as a SMILES string. Like-named read-outs stand apart in the source and are kept apart here.

Take `Cc1ncccc1-n1c(=O)c2ncn(C)c2c2ccc(C(F)(F)F)nc21` (atropisomer, axis not shown) [Compound 20, 1-methyl-5-(2-methylpyridin-3-yl)-7-(trifluoromethyl)-1,5-dihydro-4H-imidazo[4,5-c][1,8]naphthyridin-4-one]: the IC50 (usually the concentration needed to halve the response being measured) in the data set on HCT116 WT cells (Homo sapiens, HCT-116, 144 h) stood at 0.474 µM.

`Cn1cnc2c(=O)n(-c3cccc(F)c3Cl)c3nc(C(F)(F)F)ccc3c21` (atropisomer, axis not shown) [Compound 25, 5-(2-chloro-3-fluorophenyl)-1-methyl-7-(trifluoromethyl)-1,5-dihydro-4H-imidazo[4,5-c][1,8]naphthyridin-4-one]: in data set [1] (setting [2]), the bioavailability (in general, dose-corrected exposure relative to a reference, in per cent) was around 100% and the AUC(0-t) was 5840 ng·h/mL. For the same molecule, the IC50 with HCT116 WT cells (Homo sapiens, HCT-116, 144 h) was 0.663 µM.

For the molecule `Cn1cnc2c(=O)n(-c3cccc(F)c3Cl)c3nc(C(F)(F)F)ccc3c21` (single isomer, unassigned) [Compound 25-P2, 5-(2-chloro-3-fluorophenyl)-1-methyl-7-(trifluoromethyl)-1,5-dihydro-4H-imidazo[4,5-c][1,8]naphthyridin-4-one], in data set [1] (setting [3]), the bioavailability was around 100% and the AUC(0-t) was determined as 30300 ng·h/mL. Moreover, the IC50 in the data set with HCT116 WT cells (Homo sapiens, HCT-116, 144 h) was determined as 0.384 µM.

Consider `Cn1cnc2c(=O)n(-c3cccnc3C(F)(F)F)c3nc(C(F)(F)F)ccc3c21` (single isomer, unassigned) [Compound 41-P2, 1-methyl-7-(trifluoromethyl)-5-(2-(trifluoromethyl)pyridin-3-yl)-1,5-dihydro-4H-imidazo[4,5-c][1,8]naphthyridin-4-one], for which, in data set [1] (setting [2]), the bioavailability is around 100% and the AUC(0-t) came out at 10500 ng·h/mL. Besides, the IC50 in the data set on HCT116 WT cells (Homo sapiens, HCT-116, 144 h) was found to be 3.82 µM.

As for `Cn1cnc2c(=O)n(-c3cccnc3C3CC3)c3nc(C(F)(F)F)ccc3c21` (single isomer, unassigned) [Compound 42-P2, 5-(2-cyclopropylpyridin-3-yl)-1-methyl-7-(trifluoromethyl)-1,5-dihydro-4H-imidazo[4,5-c][1,8]naphthyridin-4-one], in data set [1] (setting [2]), the bioavailability was around 100% and the AUC(0-t) was found to be 10500 ng·h/mL. The IC50 in the data set with HCT116 WT cells (Homo sapiens, HCT-116, 144 h) came to 1.32 µM.

As for `Cn1cnc2c(=O)n(-c3cccnc3C3CC3)c3cc(C(F)(F)F)ccc3c21` (single isomer, unassigned) [Compound 48-P2, 5-(2-cyclopropylpyridin-3-yl)-1-methyl-7-(trifluoromethyl)-1,5-dihydro-4H-imidazo[4,5-c]quinolin-4-one], in data set [1] (setting [2]), the bioavailability was around 100% and the AUC(0-t) amounted to 24400 ng·h/mL. Besides, the IC50 in the data set with HCT116 WT cells (Homo sapiens, HCT-116, 144 h) was above 10 µM.

On to `Cn1cnc2c(=O)n(-c3cccnc3C3CC3)c3cc(Cl)ccc3c21` (single isomer, unassigned) [Compound 49-P2, 7-chloro-5-(2-cyclopropylpyridin-3-yl)-1-methyl-1,5-dihydro-4H-imidazo[4,5-c]quinolin-4-one], for which, in data set [1] (setting [2]), the bioavailability came to 89.6% and the AUC(0-t) was 11300 ng·h/mL. In addition, the IC50 with HCT116 WT cells (Homo sapiens, HCT-116, 144 h) is 0.488 µM.

Turning to `O=c1c2ncoc2c2ccc(C(F)(F)F)nc2n1-c1cccnc1C1CC1` (single isomer, unassigned) [Compound 81-P2, 5-(2-cyclopropylpyridin-3-yl)-7-(trifluoromethyl)oxazolo[4,5-c][1,8]naphthyridin-4(5H)-one], the IC50 with HCT116 WT cells (Homo sapiens, HCT-116, 144 h) was 1.34 µM.

As for `Cn1cnc2c(=O)n(-c3cccc(F)c3Cl)c3cc(Cl)ccc3c21` [Compound 39, 7-chloro-5-(2-chloro-3-fluorophenyl)-1-methyl-1,5-dihydro-4H-imidazo[4,5-c]quinolin-4-one], the IC50 in the data set with HCT116 WT cells came to 0.626 µM.

As for `Cc1ncccc1-n1c(=O)c2ncoc2c2ccc(C(F)(F)F)nc21` [Compound 40, 5-(2-methylpyridin-3-yl)-7-(trifluoromethyl)oxazolo[4,5-c][1,8]naphthyridin-4(5H)-one], the IC50 in the data set with HCT116 WT cells (Homo sapiens, HCT-116, 144 h) is 0.414 µM.

As to `Cc1ncccc1-n1c(=O)c2ncn(C)c2c2ccc(C(F)(F)F)cc21` [Compound 45, 1-methyl-5-(2-methylpyridin-3-yl)-7-(trifluoromethyl)-1,5-dihydro-4H-imidazo[4,5-c]quinolin-4-one], the IC50 in the data set with HCT116 WT cells (Homo sapiens, HCT-116, 144 h) stood at 0.902 µM.
